PMC8587750, “Structural Optimization and Biological Activity of Pyrazole Derivatives: Virtual Computational Analysis, Recovery Assay and 3D Culture Model as Potential Predictive Tools of Effectiveness against Trypanosoma cruzi” (Molecules, 2021)
Entries after “also recorded” stand apart in the source; their conditions may differ. Where two headings read alike, the source gives them in different places.

Experiments:
[1] = test system: intracellular parasites in T. cruzi-infected microtissue; experiment: 3D-microtissue-based phenotypic screening (T. cruzi-infected Vero spheroids); format: cell-based, Trypanosoma cruzi; details: 72 h treatment; for viability of intracellular parasites in microtissue, luminescence intensity (ALU): Bz 100 µM
Experimental: Vero cells were seeded at a density of 2 × 10^5 cells/well in a 96-well U-bottom plate previously coated with agarose (1%). The 3D cultures, adapted from, were cultivated for 4 days in RPMI 1640 medium supplemented with 10% FBS and L-glutamine for complete 3D microtissue formation. The 3D culture model was used as a tool to evaluate the effectiveness of promising derivatives in eliminating intracellular parasites in the microtissue.
The 3D-microtissue-based phenotypic screening was performed with the promising pyrazole derivatives. […] At the end of the treatment, the 3D cultures supernatants were removed, and luciferin (300 μg/mL) was added to the spheroids. The luminescent signal was read on the Glomax-Multi Detection reader (Promega Corporation, Madison, WI, USA). Bz (100 µM) and DMSO (≤1%) were used as positive and negative control, respectively. The IC50 value was calculated by linear regression. At least three independent assays were performed in quadruplicate.

[2] = Cytotoxicity in vitro assay (ATP, CellTiter Glo, 72 h); format: cell-based; details: African green monkey, Vero cells
Experimental: Vero cells, obtained from the Rio de Janeiro Cell Bank (BCRJ code 0245), were cultured in RPMI-1640 supplemented with 10% fetal bovine serum (FBS) and 1 mM L-glutamine, as previously described. Vero cells were used for drug screening assays and to obtain trypomastigote forms of T. cruzi.
Vero cells were used as a cellular model to analyze the toxic effect of pyrazole derivatives, series 1(a–l), 2(a–l), 3(a–n), 4(a–c), and 5(a–c), and Benznidazole (Bz) on mammalian cells. Briefly, the cells, plated on 96-well white opaque microplate (1.5 × 10^4 cells/well), were treated for 72 h at 37 °C with a wide range concentration (500–1.95 µM) of the pyrazole derivatives. The cell viability was determined by measuring ATP levels using the CellTiter Glo Kit (Promega Corporation, Madison, WI, EUA) followed by reading the luminescent signal on the Glomax-Multi Detection plate reader (Promega Corporation, Madison, WI, EUA)). All treatments and controls were performed at a low concentration of DMSO (≤1%). The 50% cytotoxic concentration values (CC50; the concentration of the compound that reduces 50% of the cell viability) were estimated by linear regression analysis. Three independent assays were performed in duplicate.

[3] = test system: T. cruzi (Dm28c-Luc) in Vero cells; experiment: Reversibility (washout) assay, parasite recrudescence in infected Vero cells; format: cell-based, Trypanosoma cruzi
Experimental: To address the question of whether the treatment with 3g, 3j, and 3m leads to parasite clearance, an intracellular T. cruzi washout assay was performed as a strategy for monitoring the parasite recrudescence. In this approach, cultures of infected Vero cells (Dm28c-Luc) were treated for 72 h at IC90 and 50 µM (2 to 5-fold de IC90) concentrations of the promising compounds 3g, 3j, and 3m and, after washing the cell monolayers, the cultures were kept for another 72 h without drug treatment. Both cell monolayers and their supernatants were evaluated for the presence of viable parasites after luciferin addition. All derivatives analyzed relapsed at the IC90 concentration (Figure 3). However, treatment with 3g, 3j, and 3m led to a significant reduction in the parasite load, reaching a decrease of 4.5-, 1.9-, and 8.7-fold, respectively, when compared to untreated infected Vero cells cultures (Figure 3). The emergence of trypomastigotes in the supernatant, at IC90 concentration, was observed three days after removal of drug pressure, but with a significant reduction in viable parasites compared to untreated cultures (Figure 3). Parasite recrudescence was not seen in 100 µM Bz treatment (Figure 3).
The washout assay, adapted from, was performed to evaluate the promising compounds efficacy. […] After successive washing, the cultures were maintained for an additional 72 h at 37 °C in RPMI 1640 medium supplemented with 10% SFB in the absence of the compound. Luciferin (300 µg/mL) was added separately to the culture supernatant, previously removed, and the cell monolayer. The luminescent signal was read on the Glomax-Multi Detection reader (Promega Corporation, Madison, WI, USA). Bz (100 µM) and DMSO (≤1%) were used as positive and negative reaction controls, respectively.

[4] = test system: trypomastigote forms of T. cruzi; experiment: Phenotypic screening against T. cruzi trypomastigotes (Dm28c-Luc, luciferase viability, 24 h); format: cell-based, Trypanosoma cruzi; details: for Trypomastigotes SI: CC50 of Vero cells/IC50 of trypomastigote; for IC50 / IC90: Trypanosoma cruzi, Dm28c-Luc, 24 h; for IC50: read-out: Trypanocidal Activity Trypomastigotes IC50; for IC90: read-out: Trypanocidal Activity Trypomastigotes IC90
Description: (§1) T. cruzi Dm28c clone genetically modified to express luciferase, kindly provided by Dr. Cristina Henriques from Oswaldo Cruz Institute–Fiocruz, was used in the drug assays. Trypomastigotes were harvested from T. cruzi-infected Vero cultures supernatants at 4th days post-infection (dpi) and used in the phenotypic screening assay. For intracellular amastigotes assays, Vero cells (2D and 3D cultures) were infected at a ratio of 10:1 parasites/host cells.
The phenotypic compound screening was performed using transgenic T. cruzi parasites expressing the firefly luciferase (Dm28c-Luc). Trypomastigotes (1 × 10^6 parasites/well) were treated for 24 h at 37 °C with the pyrazole derivatives and Bz (0.04–100 μM), followed by incubation with luciferin substrate (300 µg/mL) to determine parasite viability through luciferase activity. The concentration that reduces the number of viable parasites by 50% (IC50) or 90% (IC90) was calculated by linear regression. The luminescent signal was read on a Glomax-Multi Detection plate reader (Promega Corporation, Madison, WI, EUA)). At least three independent assays were performed in duplicate.

[5] = test system: T. cruzi cysteine protease; experiment: Cysteine protease activity of trypomastigote total protein extracts (Z-FR-AMC); format: biochemical, Trypanosoma cruzi
Experimental: Total protein extract from trypomastigotes (Dm28c-Luc; 10^8 parasites/mL) were extracted with lysis buffer. Cysteine protease activity of extracts (5 μg) was measured in acetate buffer using fluorogenic peptide substrate (60 μM of 7-Amino-4-Methylcoumarin hydrochloride, CBZ-L-Phenylalanyl-L-Arginine amide (Z-FR-AMC). Total protein extracts were incubated for 45 min at room temperature with the compounds and changes in relative fluorescence units monitored using a SpectraMaxM2e spectrophotometer (Molecular Devices, Sunnyvale, CA, USA) for 1 h with excitation at 370 nm and emission at 460 nm. The inhibition assays were performed by coincubation with different compounds (3g, 3j, and 3m) and concentrations (300–11.11 µM) and transepoxysuccinyl-L-leucylamido-(4-guanidino) butane (E-64). Additional control was carried out with DMSO (≤1%). Enzymatic activity was expressed in µmol/min/mg of protein and the residual activity in percentage.
Figure 6 Inhibition of T. cruzi cysteine protease activity. Total protein extracts of trypomastigotes (5 µg), was incubated at different concentrations (300–11.11 µM) of compounds E64 (black circle), 3g (black triangle), 3j (black square) and 3m (white circle) in enzyme activation buffer pH 5.0, at 37 °C. Enzyme activity was measured using a specific fluorogenic peptide substrate Z-FR-AMC (60 µM). Results are presented as percentage of inhibition of enzyme activity (%) and represent the mean and standard deviation (±) of three independent experiments.

[6] = test system: intracellular amastigotes of T. cruzi; experiment: Activity against intracellular amastigotes in infected Vero cells (Dm28c-Luc, 72 h); format: cell-based, Trypanosoma cruzi; details: for IC50 / IC90: Trypanosoma cruzi; for IC90: read-out: Trypanocidal Activity Intracellular Amastigotes IC90; for Intracellular Amastigotes SI: CC50 of Vero cells/IC50 of intracellular amastigote
Description: as §1
The effect of the pyrazole derivatives against intracellular amastigotes was also evaluated after 72 h treatment (37 °C) with compound concentrations ranging from 0.04–100 µM [13]. Parasite viability, measured by luminescent signal, was determined after luciferin (300 µg/mL) addition. IC50 and IC90 values were calculated by linear regression. Selectivity index (SI) was calculated as the ratio of the CC50 to IC50 values. The non-toxic concentration of DMSO (less than 1% v/v) was used in all assays. A minimum of three independent assays was carried out in duplicate.

[7] = Vero, negative log of the IC50 value in molar, read-out: Intracellular Amastigotes pIC50 (converted)
[8] = Vero cells infected with Dm28c-Luc, 72 h
[9] = Vero, 72 h, Vero cells infected with Dm28c-Luc, 72 h, read-out: Trypanocidal Activity Intracellular Amastigotes IC50

Row | Compound | reduction of microtissue infection [1] | viability of intracellular parasites in microtissue, luminescence intensity (ALU) [1] | CC50 at 72 h [2] | parasite recrudescence / efficacy ([3]; 50 µM (2 times IC90), 72 h after washout) | decrease of parasite load compared to untreated infected Vero cell cultures ([3]; 72 h treatment at IC90, washout, 72 h without drug) | Trypomastigotes SI [4] | IC50 [4] | IC90 [4] | maximum inhibition of cysteine protease enzymatic activity ([5]; 300 µM, Z-FR-AMC 60 µM, pH 5.0, 37 °C) | IC50 [6, 7] | IC90 [6, 8] | fold increase of activity against intracellular amastigotes versus hit compound ([6]; compared to hit compound) | trypanocidal activity fold higher than 3e ([6]; intracellular amastigotes) | parasite recrudescence ([3]; 100 µM, 72 h after washout) | Intracellular Amastigotes SI [6] | IC50 ([6]; Vero cells infected with Dm28c-Luc, 72 h, read-out: Trypanocidal Activity Intracellular Amastigotes IC50) | IC50 [6, 9] | melting point | fold drop in activity on moving Cl or Br to the meta position ([6]; 3b compared to 3g, 3k compared to 3j) | inhibition of cysteine protease enzymatic activity ([5]; concentrations ≥ 11.11 µM)
1 | Cc1ccc(-n2cc(C3=NCCN3)cn2)cc1Cl [Compound 3m, 1-(3-chloro-4-methylphenyl)-4-(4,5-dihydro-1H-imidazol-2-yl)-1H-pyrazole] | 93% | 12,683 ± 3976 ALU | 161 ± 16.1 µM | without parasitism recrudescence; also recorded: same activity profile as 100 µM Bz | 8.7 fold | 4.64 | 34.5 ± 8.32 µM | > 100 µM | 26% | 3.55 µM | 21.4 ± 1.25 µM | 3.8 fold | 21 fold | – | – | – | – | – | – | –
2 | O=C(Cn1ccnc1[N+](=O)[O-])NCc1ccccc1 [Bz, benznidazole, reference compound] | – | 18,858 ± 3726 ALU | > 500 µM | – | – | >26.7 | 18.7 ± 4.58 µM | > 100 µM | – | 4.68 µM | > 100 µM | – | – | not seen | >107 | 4.67 ± 0.22 µM | – | – | – | –
3 | Cc1nn(-c2cc(Cl)cc(Cl)c2)c(N)c1C1=NCCN1 [Compound 4b, 5-amino-1-(3,5-dichlorophenyl)-3-methyl-4-(4,5-dihydro-1H-imidazol-2-yl)-1H-pyrazole] | – | – | > 500 µM | – | – | – | > 100 µM | > 100 µM | – | 91.2 µM | > 100 µM | – | – | – | >5.51 | – | 90.7 ± 13.2 µM | 193 to 194 °C | – | –
4 | CC1CN=C(c2cnn(-c3cccc(Cl)c3)c2N)N1 (centres unmarked) [Compound 5a, 5-amino-1-(3-chlorophenyl)-4-(4-(5)-methyl-4,5-dihydro-1H-imidazol-2-yl)-1H-pyrazole] | – | – | > 500 µM | – | – | – | > 100 µM | > 100 µM | – | > 100 µM | > 100 µM | – | – | – | – | – | > 100 µM | 169 to 172 °C | – | –
5 | Brc1cccc(-n2cc(C3=NCCN3)cn2)c1 [Compound 3k, 1-(3-bromophenyl)-4-(4,5-dihydro-1H-imidazol-2-yl)-1H-pyrazole] | – | – | 211 ± 31.7 µM | – | – | – | > 100 µM | – | – | 26.9 µM | 72.9 ± 3.67 µM | – | – | – | 7.84 | – | 26.9 ± 2.19 µM | 116 to 120 °C | 10 fold | –
6 | Clc1cc(Cl)cc(-n2cc(C3=NCCN3)cn2)c1 [Compound 3d, 1-(3,5-dichlorophenyl)-4-(4,5-dihydro-1H-imidazol-2-yl)-1H-pyrazole] | – | – | 384 ± 23 µM | – | – | 5.78 | 66.3 ± 5.53 µM | 93.5 ± 1.56 µM | – | 55 µM | > 100 µM | – | – | – | 6.99 | – | 54.9 ± 7.12 µM | 83 to 84 °C | – | –
7 | CC(C)C[C@H](NC(=O)[C@H]1O[C@@H]1C(=O)O)C(=O)NCCCCN=C(N)N [Compound E-64, transepoxysuccinyl-L-leucylamido-(4-guanidino) butane, reference compound] | – | – | – | – | – | – | – | – | – | – | – | – | – | – | – | – | – | – | – | greater than 80%
8 | Fc1cccc(-n2cc(C3=NCCN3)cn2)c1 [Compound 3i, 4-(4,5-dihydro-1H-imidazol-2-yl)-1-(3-fluorophenyl)-1H-pyrazole] | – | – | > 500 µM | – | – | – | > 100 µM | – | – | 64.6 µM | > 100 µM | – | – | – | – | – | 64.1 ± 7.09 µM | 164 to 167 °C | – | –
